Measurements taken from patent US20120202840A1, “Use of Flubendazole and Vinca Alkaloids for Treatment of Hematological Diseases” (priority 2009, published 2012).

What was measured:
CEM = assay: MTS cell growth and viability assay, CEM; type: cell-based; settings: 3 replicates
Description: (§1) Leukemia (U937, MDAY, CEM, CEM-VBL) and solid tumor cell lines (PPC-1, HeLa) were cultured in RPMI 1640 medium. The epidermoid carcinoma cell lines KB-3-1 and KB-4.0-HTI^23 were grown in Dulbecco's Modified Eagle Medium. The lung carcinoma cell lines A549 and A549.EpoB40 were grown in RPMI with the latter supplemented with 20% fetal calf serum (FCS), and 40 nM epothilone B.^24 Leukemia cell lines OCI-AML2, CEM, and NB4 and all the myeloma cell lines (OPM2, KMS11, JJN3 LP1, H929, L1, KMS12, KSM18 and OCI My5) were maintained in Iscove's Modified Dulbecco's Medium (IMDM). TEX cells were maintained in IMDM, 15% FCS, 1% penicillin-streptomycin, 2 mM L-glutamine, 20 ng/mL SCF, 2 ng/mL IL-3. Unless otherwise noted, all media were supplemented with 10% FCS, 100 units/mL of streptomycin and 100 μg/mL of penicillin (all from Hyclone, Logan, Utah). Cells were incubated in a humidified air atmosphere containing 5% CO2 at 37° C.
(§2) Cell growth and viability was measured using the 3-(4,5-dimethylthiazol-2-yl)-5-(3-carboxymethoxyphenyl)-2-(4-sulfophenyl)-2H-tetrazolium inner salt (MTS) reduction assay (Promega, Madison, Wis.) according to the manufacture's protocol and as previously described^25. Cells were seeded in 96 well plates and treated with drug for 72 h. Optical density (OD) was measured at 490 nm.

OCI-AML2 cells [1] = settings: after 16 days of treatment; flubendazole 15 mg/kg, vinblastine 0.3 mg/kg
Description: Sub-lethally irradiated SCID mice were injected subcutaneously with OCI-AML2 cells (n=20; 10 per group). After implantation, mice were treated with 50 mg/kg flubendazole (A), 20 mg/kg flubendazole (B), or vehicle control by intraperitoneal injection daily. Tumor volume was measured over time. After 16 days (20 mg/kg dose) or 18 days (50 mg/kg dose), mice were sacrificed and tumors were excised, measured and weighted.
Sub-lethally irradiated SCID mice were injected subcutaneously with OCI-AML2 cells (n=40; 10 per group). […] After 16 (C) or 18 (D) days, mice were sacrificed and tumors were excised, measured and weighted. Data represent the mean±SD tumor weight.
Sub-lethally irradiated SCID mice were injected subcutaneously in the left flank with leukemia OCI-AML2 (2.0×10^6) or myeloma OPM2 (1.0×10^7) cells. Mice were then randomly assigned to receive flubendazole (in 0.9% NaCl and 0.01% tween-80) or vehicle control (0.9% NaCl and 0.01% tween-80) intraperitoneally. […] Tumor volumes (tumor length×width^2×0.5236) were monitored daily using calipers. At the end of the experiment (16-18 days), mice were sacrificed, tumors excised and tumor volume and weight measured. All animal studies were carried out according to the regulations of the Canadian Council on Animal Care and with the approval of the local ethics review board.

bovine tubulin [2] = assay: Measurement of tubulin sulfhydryl groups (DTNB); type: biochemical; settings: flubendazole 100 μM, vinblastine 10 μM
Description: (§3) A representative figure is shown.
The ability of microtubule target drugs to alter tubulin structure was assessed by measuring the number of reactive cysteine residues using the sulfhydryl reagent 5,5′-Dithio-bis(2-nitrobenzoic acid) (DTNB; Sigma) as previously described^19,29. […] After incubation, DTNB was added (100 μM final concentration) and the absorbance was measured in a 1 cm path length cuvette at 412 nm for 60 min at 37° C. The number of sulfhydryl groups were determined by using a molar extinction coefficient for DTNB of 13 600 (M^−1, cm^−1).^29

bovine tubulin [3] = assay: Site of binding to tubulin (colchicine-tubulin fluorescence); settings: tubulin 5.0 μM, 100 μM drug 30 min, then colchicine 10 μM 60 min
Description: (C) Tubulin (5.0 μM) was incubated for 30 min with 100 μM vinblastine, 100 μM flubendazole, or buffer control. […] A representative figure is shown.
The site of flubendazole binding was determined similar to Gupta et al^19. Bovine tubulin (5.0 μM) was incubated with 100 μM flubendazole, 100 μM vinblastine or buffer control for 30 min at 37° C.

CEM-VBL = assay: MTS assay, CEM-VBL (Pgp over-expressing); type: cell-based
Description: Over-expression of P-glycoprotein (Pgp, MDR1) renders cells resistant to vinca alkaloid microtubule inhibitors.^43 Therefore, the effects of Pgp over-expression on flubendazole's cytotoxicity were tested. CEM-VBL cells over-express Pgp,^44 which was confirmed with a rhodamine dye exclusion assay. CEM wild type and CEM-VBL cells were treated with increasing concentrations of flubendazole or vinblastine and cell viability measured by the MTS assay (Table 1). […] In contrast, CEM-VBL cells over-expressing Pgp were resistant to vinblastine at concentrations greater than 5.0 μM (Table 1).
as §1, §2

OCI-AML2 cells [4] = assay: MTS cell growth and viability assay, OCI-AML2; type: cell-based; settings: OCI-AML2 cells, FIG. 1A
Description: (A) OCI-AML2 cells were treated for 72 h with increasing concentrations of benzimidazoles. After incubation, cell growth and viability was measured by the MTS assay. Data represent the mean percentage of viable cells ±SD from a representative experiment.

bovine tubulin [5] = assay: Tubulin polymerization assay; type: biochemical; settings: cell-free, bovine tubulin 1.8 mg/ml; flubendazole 100 μM
Description: as §3
Polymerization of bovine tubulin was measured according to Beyer et al^28. Briefly, bovine tubulin (1.8 mg/ml; Cytoskeleton; Denver, USA) was added to ice cold polymerization buffer (PEM; 80 mM PIPES, 0.5 mM EGTA, 2 mM MgCl2, 10% glycerol and 1 mM GTP) and centrifuged at top speed in a microcentrifuge for 5 min at 4° C. […] Following addition of tubulin, the plate was immediately placed in the spectrophotometer, which was maintained at 37° C., and the absorbance measured every 3 minutes for 2.5 h at 340 nm.

leukemia cell lines = assay: Screen of library of 110 drugs for cytotoxicity; type: cell-based
Description: OCI-AML2 leukemia cells were treated with increasing concentrations of 8 benzimidazoles. Seventy two hours after incubation, cell growth and viability was measured by the MTS assay.

advanced solid tumors = settings: Phase I, cited from earlier work

vinblastine
IC50 (CEM): 140 ± 10 nM | mouse body weight (OCI-AML2 cells [1]): does not affect mouse body weight | reduction in number of reactive cysteines compared to buffer control (bovine tubulin [2]): 8.6±2.5 | colchicine fluorescence (colchicine binding to tubulin) (bovine tubulin [3]): had no effect | IC50 (CEM-VBL; CEM-VBL, 3 replicates): > 5000 nM | sensitivity of CEM-VBL cells compared to wild type controls (CEM-VBL; Pgp over-expression): resistant

c1ccc2[nH]c(-c3cscn3)nc2c1 [thiabendazole]
induction of cell death (OCI-AML2 cells [4]): did not induce cell death | effect on tubulin polymerization / microtubule formation (bovine tubulin [5]): did not inhibit microtubule formation

COC(=O)Nc1nc2ccc(C(=O)c3ccccc3)cc2[nH]1 [mebendazole]
cytotoxicity in library screen (leukemia cell lines): cytotoxic

CCCSc1ccc2nc(NC(=O)OC)[nH]c2c1 [albendazole]
patients with severe neutropenia (advanced solid tumors; 7 patients): 3 patients | patients with reduced levels of the tumor markers AFP and CEA (advanced solid tumors; advanced solid tumors): 2 of 7

c1ccc2[nH]cnc2c1 [1,3-benzidiazole]
induction of cell death (OCI-AML2 cells [4]): did not induce cell death | effect on tubulin polymerization / microtubule formation (bovine tubulin [5]): did not inhibit microtubule formation
